Usually inhibition stands for the percentage by which the read-out fell short of the control.

Counter-ions that a name gives are not always drawn.

Assay [1] has as its system T1, protein kinase C (PKC).
T1 construct: this enzyme activity was enriched, starting from a chicken gizzard extract; from tissue; host or cells: chicken gizzard
As to the kind of experiment: Inhibition of PS/DO-mediated protein kinase C activity (32P incorporation into histone H-1). Type of assay: biochemical, chicken. The settings on record: activity with PKC activators and without test substance = 100%; for inhibition at 100 µM: test substance 10^-4 mol/l; for inhibition at 10 µM: test substance 10^-5 mol/l; for inhibition at 1 µM: test substance 10^-6 mol/l. From the text: 1. Inhibition of the enzyme protein kinase C. For the elucidation of the inhibiting influence of the compounds according to the present invention of general formula (I) on the calcium- and phospholipid-dependent protein kinase (PKC), this enzyme activity was enriched, starting from a chicken gizzard extract. The two-step procedure according to purification steps described in the literature (J. Biol. Chem., 260, 15718-15722/1985) utilized the property of the enzyme of binding in the presence of calcium to cell membranes and again dissolving off by calcium chelators (EGTA). In the first purification step, there took place the binding of the PKC to membranes of the chicken gizzard extract and, in the second step, to the so-called inside out vesicles of erythrocytes. After dissolving from the erythrocyte membranes and rebuffering, the PKC preparation was present in 10 mM HEPES, 1 mM DTT and 0.1% PEG 20,000 (pH 7.5) and, under these conditions, it could be stored for several months at -70° C. without loss of activity. The activity of the enzyme was determined via the incorporation of phosphorus 32-labelled phosphate into the protein histon H-1, which is phosphorylatable by PKC. The test thereby contained the following components: 50 mM HEPES (pH 7.5), 1 mM DTT, 5 mM magnesium chloride, about 10 μM free calcium ions, 200 μg/ml histone, 5 μg/ml phosphatidylserine, 1 μg/ml 1,2-diolein, 10 μuM ATP, in each case an appropriate amount of PKC preparation and optionally a test substance. The kinase activity measured under standard conditions in the presence of PKC activators (and without test substance) was, in each case, taken as being 100% and the inhibitory action of the compounds of general formula (I) referred thereto as a percentage.

Assay [2] concerns gel-filtered human thrombocytes. As to the kind of experiment: Inhibition of OAG-induced platelet aggregation (aggregometer). Type of assay: cell-based. The settings on record: 3 min preincubation, OAG 5×10^-5 M, human platelets; for inhibition at 100 µM: test substance 10^-4 mol/l; for inhibition at 10 µM: test substance 10^-5 mol/l; for inhibition at 1 µM: test substance 10^-6 mol/l. As for the experimental part: 2. Influence of the compound of Example 1 on platelet aggregation stimulated by oleoylacetylglycerol.
For carrying out the aggregation experiments, use was made of gel-filtered human thrombocytes. These were prepared in the following way: after centrifuging human blood for 15 minutes at 60 xg, the supernatant, i.e., the platelet-rich plasma, was used for the gel filtration. By means of the gel filtration through a column packed with Sepharose CL-2B, the platelets were transferred into a calcium-free, defined buffer medium (15 mM tris, 150 mM sodium chloride, 5.5 mM glucose, 0.2% bovine serum albumin; pH 7.4). Subsequently, the platelets were recalcified to a concentration of 7×10^-4 M calcium. The platelets were then incubated at 37° C. in an aggregometer and, after initiation of the aggregation by a stimulus, the decrease of the absorption was determined as a measure of the aggregation. As aggregation-initiating stimulus, there was used 1-oleoyl-2-acetylglycerol (OAG), an activator of the enzyme protein kinase C (J. Biol. Chem., 258, 6701-6704/1983) in a concentration of 5×10^-5 M. The aggregation achieved under these conditions was taken as being 100% control. The carrying out of the experiments on the influence of the compound of Example 1 on the OAG-stimulated aggregation took place in the following way: the platelets were first incubated for 3 minutes with the compound of Example 1 at the given concentration and subsequently the aggregation was initiated with OAG. The reduced extent of the aggregation was, in each case, calculated as a percentage of the 100% control. The results obtained are set out in Table 1 as well.

Molecule `CCCOCC(CN(C)C)OC(=O)CC` (racemic) [Example 1.c, (±)-3-dimethylamino-1-propoxy-2-propyl propionate oxalate] returned an inhibition at 100 µM in assay [1] of 9%.

In assay [1], `CCCCCCCCCCCCCCCCCCOCC(CNC)OC(C)=O` (racemic) [Example 2.a, (±)-3-methylamino-1-octadecyloxy-2-propyl acetate hydrochloride] gave an inhibition at 10 µM of 35% and an inhibition at 1 µM of 13%.

As to `CCCCCCCCCCCCCCCCCCOCC(CN1CCCCC1)OC(C)=O` (racemic) [Example 1.a, (±)-1-octadecyloxy-3-piperidino-2-propyl acetate hydrochloride], the inhibition at 100 µM in assay [1] was 25%; in assay [2], 54%.

In the case of `CCCCCCCCCCCCCCCCOCC(CN(C)C)OC(C)=O` (racemic) [Example 1.f, (±)-3-dimethylamino-1-hexadecyloxy-2-propyl acetate hydrochloride], in assay [1], the inhibition at 10 µM worked out at 27%.

`CCCCCCCCCCCCCCOCC(CN(C)C)OC(C)=O` (racemic) [Example 1.e, (±)-3-dimethylamino-1-tetradecyloxy-2-propyl acetate hydrochloride] registered an inhibition at 10 µM in assay [1] of 14%.

In assay [1], `CCCCCCCC/C=C\CCCCCCCCOCC(CN(C)C)OC(C)=O` (racemic) [Example 1.m, (±)-3-dimethylamino-1-(9-cis-octadecenyloxy)-2-propyl acetate hydrochloride] displayed an inhibition at 10 µM of 48% and an inhibition at 1 µM of 14%.

The molecule `CCCCCCCCCCCCCCCCCCOCC(CN(Cc1ccccc1)Cc1ccccc1)OC(C)=O` (racemic) [Example 1.b, (±)-3-dibenzylamino-1-octadecyloxy-2-propyl acetate hydrochloride] registered an inhibition at 10 µM in assay [1] of 22%.

In assay [1], `CCCCCCCCCCCCCCCCCCOCC(CN1CCNCC1C)OC(C)=O` (stereo not shown) [Example 1.d, 1-(2-methyl)-piperazinyl-3-octadecyloxy-2-propyl acetate oxalate] yielded an inhibition at 10 µM of 61% and an inhibition at 1 µM of 18%. The inhibition at 3 µM in assay [2] (test substance 3 × 10^-6 mol/l) is 14%. In assay [2], this molecule gave an inhibition at 10 µM of 100% and an inhibition at 1 µM of 0%.

Take `CCCCCCCCCCCCCCCCCCCCOCC(CN(C)C)OC(C)=O` (racemic) [Example 1.g, (±)-3-dimethylamino-1-eicosanyloxy-2-propyl acetate hydrochloride]: the values for the inhibition at 10 µM in assay [1] and in assay [2] were 39% and 53%, respectively.

For the molecule `CCCCCCCCCCCCCCCCCCOCC(CN(C)C)OC(C)=O` (racemic) [Example 1, (±)-3-Dimethylamino-1-octadecyloxy-2-propyl acetate hydrochloride], in assay [1], the inhibition at 100 µM turned out to be 86%, the inhibition at 10 µM was determined as 61% and 1 µM produced 24% inhibition. Also, in assay [2], testing at 100 µM gave an inhibition of 100%, the inhibition at 10 µM is 48% and testing at 1 µM gave an inhibition of 2%.

Regarding `CCCCCCCCCCCCCCCCCCSCC(CN(C)C)OC(C)=O` (racemic) [Example 3, (±)-3-Dimethylamino-1-octadecylthio-2-propyl acetate hydrochloride], in assay [1], 100 µM produced 70% inhibition and the inhibition at 10 µM turned out to be 22%.

The molecule `CCCCCCCCCCCCCCC(C)OCC(CN(C)C)OC(C)=O` (racemic) [Example 1.l, (±)-3-dimethylamino-1-(2-hexadecyloxy)-2-propyl acetate hydrochloride] came in with an inhibition at 10 µM in assay [1] of 31%.

Consider `CCCCCCCCCCCCCCCCCCOCC(CN)OC(C)=O` (racemic) [Example 2, (±)-3-Amino-1-octadecyloxy-2-propyl acetate hydrochloride], for which, in assay [1], the inhibition at 100 µM was determined as 44% and the inhibition at 10 µM came to 18%.

The record behind these values is US4855489A, “2-acyloxypropylamino derivatives, processes for the preparation thereof, and pharmaceutical compositions containing them” (Goedecke Aktiengesellschaft, priority 1986, dated 1989).
